Residue numbers refer to the chain shown, from its start.
Legend:
[1] = biological target: T1, RhlR A44M in ΔrhlI strain (Pseudomonas aeruginosa, UniProt P54292, A44M); test: ChIP-seq of RhlR-binding sites; assay type: cell-based; details: 2 µM C4HSL
T1 construct: expressed in transfected cells; host or cells: P. aeruginosa UCBPP-PA14 ΔrhlI, mutant allele placed on the chromosome at the native rhlR locus
T1 sequence (P54292 1-241 A44M): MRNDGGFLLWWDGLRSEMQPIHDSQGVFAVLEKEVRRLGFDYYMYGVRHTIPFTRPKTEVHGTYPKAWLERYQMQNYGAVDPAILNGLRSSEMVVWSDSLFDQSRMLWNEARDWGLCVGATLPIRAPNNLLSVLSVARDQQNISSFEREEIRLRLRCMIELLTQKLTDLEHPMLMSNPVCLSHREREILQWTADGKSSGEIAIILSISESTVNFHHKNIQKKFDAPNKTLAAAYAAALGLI
Description: (§1) P. aeruginosa strains were grown overnight, back diluted 1:100 in fresh LB media, and grown to an OD600 = 2.0. Crosslinking, lysis, and immunoprecipitation were performed as previously described ([37]).

WT RhlR in ΔrhlI strain = biological target: T2, WT RhlR in ΔrhlI strain (Pseudomonas aeruginosa, UniProt P54292); test: ChIP-seq of RhlR-binding sites; assay type: cell-based; details: 2 µM C4HSL
T2 construct: Comparison of ChIP enrichment from the ΔrhlI and ΔrhlI RhlR T58L strains; endogenous in cells; host or cells: P. aeruginosa UCBPP-PA14 ΔrhlI
T2 sequence (P54292 1-241): T1 sequence (P54292 1-241 A44M) with M44A
Description: as §1

SMILES: CCCC(=O)N[C@H]1CCOC1=O [C4HSL, N-butyryl-L-homoserine lactone]
- ChIP-seq enrichment at PA14_01490 (rahU) (peak 139,733) [1]: 36.29
- ChIP-seq enrichment at PA14_06320 (peak 560,072) [1]: 207.8
- ChIP-seq enrichment at PA14_10360 (peak 895,433) [1]: 557.9
- ChIP-seq enrichment at PA14_16100*, PA14_16110 (peak 1,372,370) [1]: 41.27
- ChIP-seq enrichment at PA14_18800 (peak 1,620,628) [1]: 459
- ChIP-seq enrichment at PA14_18810 operon (peak 1,621,028) [1]: 216.7
- ChIP-seq enrichment at PA14_20130, PA14_20140 (fpr) (peak 1,735,823) [1]: 187.2
- ChIP-seq enrichment at PA14_21020 (azeB) operon, PA14_21030 (peak 1,816,906) [1]: 2,385.1
- ChIP-seq enrichment at PA14_22090 (peak 1,921,598) [1]: 403.3
- ChIP-seq enrichment at PA14_28250*, PA14_28260 (peak 2,444,398) [1]: 18.9
- ChIP-seq enrichment at PA14_29620, fhp operon (peak 2,568,048) [1]: 698.1
- ChIP-seq enrichment at PA14_30570, PA14_30580 (vqsR) (peak 2,647,472) [1]: 454.9
- ChIP-seq enrichment at PA14_30840* (peak 2,677,542) [1]: 631.2
- ChIP-seq enrichment at PA14_37745 operon (peak 3,364,761) [1]: 0
- ChIP-seq enrichment at PA14_48140 operon (peak 4,285,523) [1]: 89.06
- ChIP-seq enrichment at PA14_48530 operon (peak 4,313,855) [1]: 870.2
- ChIP-seq enrichment at PA14_49310 (peak 4,382,169) [1]: 273.4
- ChIP-seq enrichment at PA14_49740, PA14_49750 operon (peak 4,425,570) [1]: 518.7
- ChIP-seq enrichment at PA14_57970*, PA14_57980 (peak 5,159,548) [1]: 16.73
- ChIP-seq enrichment at PA14_59180* (peak 5,268,881) [1]: 320.1
- ChIP-seq enrichment at PA_48530* (peak 4,314,560) [1]: 476.8
- ChIP-seq enrichment at arcD operon (peak 6,093,032) [1]: 97.46
- ChIP-seq enrichment at hcnA operon, exoY (peak 3,236,436) [1]: 998.8
- ChIP-seq enrichment at hsiA2 operon, hcpD (peak 3,831,541) [1]: 840.8
- ChIP-seq enrichment at lasA (peak 3,600,666) [1]: 0
- ChIP-seq enrichment at lasB (peak 1,387,361) [1]: 155.1
- ChIP-seq enrichment at lecB, PA14_20620 operon (peak 1,774,336) [1]: 3,659.5
- ChIP-seq enrichment at pa1L (peak 2,721,761) [1]: 431.4
- ChIP-seq enrichment at peak 5,414,219 [1]: 86.36
- ChIP-seq enrichment at phzA1 operon, phzM (peak 813,529) [1]: 1,47.87
- ChIP-seq enrichment at phzA2 operon (peak 3,561,969) [1]: 134.6
- ChIP-seq enrichment at phzB1*, phzC1 (peak 812,427) [1]: 872.5
- ChIP-seq enrichment at phzB2*, phzC2 (peak 3,561,157) [1]: 241.2
- ChIP-seq enrichment at phzH (peak 64,211) [1]: 1,287.1
- ChIP-seq enrichment at rhlA operon (peak 1,648,391) [1]: 636
- ChIP-seq enrichment at rhlI (peak 1,651,804) [1]: 425
- ChIP-seq enrichment at rmlB operon (peak 6,082,366) [1]: 428.1
- ChIP-seq enrichment at rpsL operon (peak 754,615) [1]: 128.1
- ChIP-seq enrichment at tnpS, tnpT operon (peak 3,188,223) [1]: 255
- ChIP-seq enrichment at PA14_01490 (rahU) (peak 139,733) (WT RhlR in ΔrhlI strain): 1,797.7
- ChIP-seq enrichment at PA14_06320 (peak 560,072) (WT RhlR in ΔrhlI strain): 1,705.2
- ChIP-seq enrichment at PA14_10360 (peak 895,433) (WT RhlR in ΔrhlI strain): 1,134.9
- ChIP-seq enrichment at PA14_16100*, PA14_16110 (peak 1,372,370) (WT RhlR in ΔrhlI strain): 1,180.9
- ChIP-seq enrichment at PA14_18800 (peak 1,620,628) (WT RhlR in ΔrhlI strain): 664.1
- ChIP-seq enrichment at PA14_18810 operon (peak 1,621,028) (WT RhlR in ΔrhlI strain): 127.1
- ChIP-seq enrichment at PA14_20130, PA14_20140 (fpr) (peak 1,735,823) (WT RhlR in ΔrhlI strain): 258.2
- ChIP-seq enrichment at PA14_21020 (azeB) operon, PA14_21030 (peak 1,816,906) (WT RhlR in ΔrhlI strain): 4,251.6
- ChIP-seq enrichment at PA14_22090 (peak 1,921,598) (WT RhlR in ΔrhlI strain): 402.5
- ChIP-seq enrichment at PA14_28250*, PA14_28260 (peak 2,444,398) (WT RhlR in ΔrhlI strain): 126.8
- ChIP-seq enrichment at PA14_29620, fhp operon (peak 2,568,048) (WT RhlR in ΔrhlI strain): 2,516.7
- ChIP-seq enrichment at PA14_30570, PA14_30580 (vqsR) (peak 2,647,472) (WT RhlR in ΔrhlI strain): 770.7
- ChIP-seq enrichment at PA14_30840* (peak 2,677,542) (WT RhlR in ΔrhlI strain): 7,49.74
- ChIP-seq enrichment at PA14_37745 operon (peak 3,364,761) (WT RhlR in ΔrhlI strain): 408.8
- ChIP-seq enrichment at PA14_48140 operon (peak 4,285,523) (WT RhlR in ΔrhlI strain): 311.1
- ChIP-seq enrichment at PA14_48530 operon (peak 4,313,855) (WT RhlR in ΔrhlI strain): 838.3
- ChIP-seq enrichment at PA14_49310 (peak 4,382,169) (WT RhlR in ΔrhlI strain): 1,250.8
- ChIP-seq enrichment at PA14_49740, PA14_49750 operon (peak 4,425,570) (WT RhlR in ΔrhlI strain): 1,588.8
- ChIP-seq enrichment at PA14_57970*, PA14_57980 (peak 5,159,548) (WT RhlR in ΔrhlI strain): 826
- ChIP-seq enrichment at PA14_59180* (peak 5,268,881) (WT RhlR in ΔrhlI strain): 381.4
- ChIP-seq enrichment at PA_48530* (peak 4,314,560) (WT RhlR in ΔrhlI strain): 258.8
- ChIP-seq enrichment at arcD operon (peak 6,093,032) (WT RhlR in ΔrhlI strain): 1,302.3
- ChIP-seq enrichment at hcnA operon, exoY (peak 3,236,436) (WT RhlR in ΔrhlI strain): 2,43.83
- ChIP-seq enrichment at hsiA2 operon, hcpD (peak 3,831,541) (WT RhlR in ΔrhlI strain): 1,370.2
- ChIP-seq enrichment at lasA (peak 3,600,666) (WT RhlR in ΔrhlI strain): 239.4
- ChIP-seq enrichment at lasB (peak 1,387,361) (WT RhlR in ΔrhlI strain): 597.9
- ChIP-seq enrichment at lecB, PA14_20620 operon (peak 1,774,336) (WT RhlR in ΔrhlI strain): 16,502.8
- ChIP-seq enrichment at pa1L (peak 2,721,761) (WT RhlR in ΔrhlI strain): 204.8
- ChIP-seq enrichment at peak 5,414,219 (WT RhlR in ΔrhlI strain): 519
- ChIP-seq enrichment at phzA1 operon, phzM (peak 813,529) (WT RhlR in ΔrhlI strain): 5,438.8
- ChIP-seq enrichment at phzA2 operon (peak 3,561,969) (WT RhlR in ΔrhlI strain): 575.2
- ChIP-seq enrichment at phzB1*, phzC1 (peak 812,427) (WT RhlR in ΔrhlI strain): 1,614.1
- ChIP-seq enrichment at phzB2*, phzC2 (peak 3,561,157) (WT RhlR in ΔrhlI strain): 214.5
- ChIP-seq enrichment at phzH (peak 64,211) (WT RhlR in ΔrhlI strain): 1,937.1
- ChIP-seq enrichment at rhlA operon (peak 1,648,391) (WT RhlR in ΔrhlI strain): 4,107.6
- ChIP-seq enrichment at rhlI (peak 1,651,804) (WT RhlR in ΔrhlI strain): 562.1
- ChIP-seq enrichment at rmlB operon (peak 6,082,366) (WT RhlR in ΔrhlI strain): 2,46.6
- ChIP-seq enrichment at rpsL operon (peak 754,615) (WT RhlR in ΔrhlI strain): 580.9
- ChIP-seq enrichment at tnpS, tnpT operon (peak 3,188,223) (WT RhlR in ΔrhlI strain): 365.2
